From ChEMBL document CHEMBL1221163, “Monocarboxylate transporter MCT1 is a target for immunosuppression” (Nat Chem Biol, 2005)

What was measured:
T-cell [1] = experiment: Inhibition of DNA synthesis in PMA-ionomycin stimulated human T cells after 4 hrs by [3H]thymidine incorporation assay; type: functional, cell-based
T-cell [2] = experiment: Reduction in extracellular lactate production in PMA-ionomycin stimulated human T cells after 4 hrs; type: functional, cell-based
T-cell [3] = experiment: Increase in intracellular lactate production in PMA-ionomycin stimulated human T cells after 4 hrs; type: functional, cell-based
[4] = Antiproliferative activity against human T cells assessed as inhibition of PMA-ionomycin stimulated cell proliferation after 3 days by [3H]thymidine incorporation assay; type: functional, cell-based
[5] = biological target: T1, Monocarboxylate transporter 1 (Homo sapiens, UniProt P53985); experiment: Displacement of [3H]5-[(3-hydroxypropyl)thio]-3-methyl-1-[2-(methyl-t)propyl-2,3-t2]-6-(1-naphthalenylmethyl)-1H-pyrrolo[3,4-d]pyrimidine-2,4(3H,6H)-dione from human MCT1 expressed in INS1 cell membrane; type: cell membranes
T1 sequence (P53985 whole entry): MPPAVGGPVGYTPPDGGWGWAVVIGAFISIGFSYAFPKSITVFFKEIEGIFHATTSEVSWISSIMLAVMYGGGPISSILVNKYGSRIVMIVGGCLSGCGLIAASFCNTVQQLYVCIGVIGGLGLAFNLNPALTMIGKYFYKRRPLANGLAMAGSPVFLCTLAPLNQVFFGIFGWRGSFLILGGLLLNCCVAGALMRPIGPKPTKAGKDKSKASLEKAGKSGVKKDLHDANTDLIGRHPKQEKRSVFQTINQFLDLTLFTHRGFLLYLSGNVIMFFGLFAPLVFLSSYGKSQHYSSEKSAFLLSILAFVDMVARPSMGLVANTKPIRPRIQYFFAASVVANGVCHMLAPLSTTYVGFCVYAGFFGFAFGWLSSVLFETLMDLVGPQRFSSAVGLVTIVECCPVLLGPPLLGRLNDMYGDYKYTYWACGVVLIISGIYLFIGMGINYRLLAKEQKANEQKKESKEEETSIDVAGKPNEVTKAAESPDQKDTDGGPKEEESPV

[6] = biological target: T1, Monocarboxylate transporter 1; experiment: Displacement of [3H]5-[(3-hydroxypropyl)thio]-3-methyl-1-[2-(methyl-t)propyl-2,3-t2]-6-(1-naphthalenylmethyl)-1H-pyrrolo[3,4-d]pyrimidine-2,4(3H,6H)-dione from MCT1 in human Jurkat cell membranes

| IC50 (T-cell [1]) [nM] | IC50 (T-cell [2]) [nM] | IC50 (T-cell [3]) [nM] | Ki ([5]; read-out: Ki) [nM] | Ki [6] [nM] | Ki ([5]; read-out: pKi (converted)) [nM] | SMILES | IC50 [4] [nM] |
| --- | --- | --- | --- | --- | --- | --- | --- |
| 9.77 | 11.5 | 4.57 | – | – | – | CC(C)Cn1c(=O)n(C)c(=O)c2c(C(=O)N3CC[C@@H](O)C3)c(Cc3ccnc4ccccc34)sc21 | 3.24 |
| – | – | – | 23 | – | – | CC(C)Cc1nn(C)c(=O)c2cn(Cc3ccc(N=[N+]=[N-])c([125I])c3)cc12 | – |
| 10 | 5.37 | 3.31 | – | – | – | CC(C)Cn1c(=O)n(C)c(=O)c2c(C(=O)N3CCCC3)c(Cc3ccccc3C(F)(F)F)sc21 | 2.88 |
| 11.7 | 10.2 | 4.79 | – | 3.39 | 10.7 | CC(C)Cn1c(=O)n(C)c(=O)c2c(C(=O)N3CC=CC3)c(Cc3ccccc3C(F)(F)F)sc21 | 12 |
| 3.31 | 4.27 | 1.55 | – | – | – | CC(C)Cn1c(=O)n(C)c(=O)c2c(C(=O)N3CC[C@@H](O)C3)c(Cc3c[nH]c4ccccc34)sc21 | 0.912 |
